# Legend:
# [1] = test system: antibodies in sera from SARS patients (sera 1a, 1b, 2, 6, 37, 62, London, SARS-yellow, SARS-green); format: binding, human; design: Binding of serum 6 to linear peptides of protein X1 of SARS-CoV Urbani / Binding of serum 37 to linear peptides of protein X1 of SARS-CoV Urbani / Binding of serum 6 to looped/cyclic peptide (PEPSCAN-ELISA) / Binding of serum 37 to looped/cyclic peptide (PEPSCAN-ELISA) / Binding of serum 37 to looped/cyclic peptides of protein X1 of SARS-CoV Urbani / Binding of serum 6 to linear peptides of protein X2 / Binding of serum 37 to linear peptides of protein X2 / Binding of serum 37 to looped/cyclic peptides of protein X2 of SARS-CoV Urbani / Binding of serum 6 to linear peptides of protein M of SARS-CoV Urbani / Binding of serum 37 to linear peptides of protein M of SARS-CoV Urbani / Binding of serum 6 to looped/cyclic peptides of protein M of SARS-CoV Urbani / Binding of serum 37 to looped/cyclic peptides of protein M of SARS-CoV Urbani / Binding of serum 6 to linear peptides of protein X3 of SARS-CoV Urbani / Binding of serum 37 to linear peptides of protein X3 of SARS-CoV Urbani / Binding of serum 37 to looped/cyclic peptides of protein X3 of SARS-CoV Urbani / Binding of serum 6 to linear peptides of protein X4 of SARS-CoV Urbani / Binding of serum 37 to linear peptides of protein X4 of SARS-CoV Urbani / Binding of serum 37 to looped/cyclic peptides of protein X4 of SARS-CoV Urbani / Binding of serum 6 to linear peptides of protein X5 of SARS-CoV Urbani / Binding of serum 37 to linear peptides of protein X5 of SARS-CoV Urbani / Binding of serum 37 to looped/cyclic peptides of protein X5 of SARS-CoV Urbani / Binding of serum 6 to linear peptides of protein N of SARS-CoV Urbani / Binding of serum 37 to linear peptides of protein N of SARS-CoV Urbani / Binding of serum 6 to linear peptide (PEPSCAN-ELISA) / Binding of serum 1a to looped/cyclic peptides of protein N of SARS-CoV Urbani / Binding of serum 1b to looped/cyclic peptides of protein N of SARS-CoV Urbani / Binding of serum 2 to looped/cyclic peptides of protein N of SARS-CoV Urbani / Binding of serum 6 to looped/cyclic peptides of protein N of SARS-CoV Urbani / Binding of serum 37 to looped/cyclic peptides of protein N of SARS-CoV Urbani / Binding of serum 62 to looped/cyclic peptides of protein N of SARS-CoV Urbani / Binding of serum London to looped/cyclic peptides of protein N of SARS-CoV Urbani / Binding of serum SARS-green to looped/cyclic peptides of protein N of SARS-CoV Urbani: unit not given here
# [2] = test system: control sera (pooled serum of ten healthy LUMC hospital workers; commercial negative donor pooled serum from the Dutch bloodbank); format: binding, human; design: Binding of Control serum LUMC to linear peptides / Binding of Control serum Blood-bank to linear peptides / Binding of Control serum LUMC to looped peptides / Binding of Control Serum Blood-Bank to Looped peptides / Binding of Control serum LUMC to linear peptides of the protein M of SARS-CoV Urbani / Binding of Control serum Blood-bank to linear peptides of the protein M of SARS-CoV Urbani / Binding of Control serum LUMC to looped peptides of the protein M of SARS-CoV Urbani / Binding of Control Serum Blood-Bank to Looped peptides of the protein M of SARS-CoV Urbani: unit not given here
# [3] = test system: rabbit serum obtained by immunizing a rabbit with the SARS-CoV strain Frankfurt 1; format: binding; design: Binding of a rabbit serum to linear peptides / Binding of a rabbit serum to looped peptides / Rabbit serum linear peptides / Rabbit serum looped peptides / Binding of a rabbit serum to linear peptides of protein N of SARS-CoV Urbani (Rabbit serum linear peptides) / Binding of a rabbit serum to looped/cyclic peptides of protein N of SARS-CoV Urbani (Rabbit serum looped peptides): unit not given here
# [4] = test system: recombinant human anti-SARS-CoV antibody 03-018; format: binding; design: Binding of antibody 03-018 to linear peptides of the N protein of SARS-CoV Urbani / Binding of antibody 03-018 to looped/cyclic peptides of the N protein of SARS-CoV Urbani: unit not given here
Sequence,Binding of serum 1a to linear peptide (PEPSCAN-ELISA) [1],Binding of serum 1a to looped/cyclic peptides of protein N of SARS-CoV Urbani [1],Binding of serum 1b to linear peptide (PEPSCAN-ELISA) [1],Binding of serum 1b to looped/cyclic peptides of protein N of SARS-CoV Urbani [1],Binding of serum 2 to linear peptide (PEPSCAN-ELISA) [1],Binding of serum 2 to looped/cyclic peptides of protein N of SARS-CoV Urbani [1],Binding of serum 6 to linear peptide (PEPSCAN-ELISA) [1],Binding of serum 6 to looped/cyclic peptides of protein N of SARS-CoV Urbani [1],Binding of serum 37 to linear peptide (PEPSCAN-ELISA) [1],Binding of serum 37 to looped/cyclic peptides of protein N of SARS-CoV Urbani [1],Binding of serum 62 to linear peptide (PEPSCAN-ELISA) [1],Binding of serum 62 to looped/cyclic peptides of protein N of SARS-CoV Urbani [1],Binding of serum London to linear peptide (PEPSCAN-ELISA) [1],Binding of serum London to looped/cyclic peptides of protein N of SARS-CoV Urbani [1],Binding of serum SARS-green to looped/cyclic peptides of protein N of SARS-CoV Urbani [1],Binding of serum SARS-yellow to looped/cyclic peptides of protein N of SARS-CoV Urbani [1],Binding of a rabbit serum to linear peptides of protein N of SARS-CoV Urbani (Rabbit serum linear peptides) [3],Binding of a rabbit serum to looped/cyclic peptides of protein N of SARS-CoV Urbani (Rabbit serum looped peptides) [3],Binding of antibody 03-018 to linear peptides of the N protein of SARS-CoV Urbani [4],Binding of antibody 03-018 to looped/cyclic peptides of the N protein of SARS-CoV Urbani [4],further results
PKGFYAEGSRGGSQA,0.3,0.3,0.1,0.3,0.2,0.3,0.2,0.2,0.6,0.4,0.6,0.5,0.5,0.3,0.4,0.2,0.1,0.1,0.1,0.2,Binding of serum SARS-green to linear peptide (PEPSCAN-ELISA) [1]: 0.0; Binding of serum SARS-yellow to linear peptide (PEPSCAN-ELISA) [1]: 0.5; Binding of Control Serum Blood-Bank to Looped peptides [2]: 0.5; Binding of Control serum Blood-bank to linear peptides [2]: 0.8; Binding of Control serum LUMC to linear peptides [2]: 0.7; Binding of Control serum LUMC to looped peptides [2]: 0.5
RGGSQASSRSSSRSR,0.3,0.2,0.1,0.2,0.3,0.4,0.4,0.3,0.7,0.2,0.7,0.1,0.5,0.1,0.2,0.3,0.3,0.7,0.1,0.1,Binding of serum SARS-green to linear peptide (PEPSCAN-ELISA) [1]: 0.3; Binding of serum SARS-yellow to linear peptide (PEPSCAN-ELISA) [1]: 0.7; Binding of Control Serum Blood-Bank to Looped peptides [2]: 0.4; Binding of Control serum Blood-bank to linear peptides [2]: 0.8; Binding of Control serum LUMC to linear peptides [2]: 0.8; Binding of Control serum LUMC to looped peptides [2]: 0.6
TKQYNVTQAFGRRGP,0.3,0.4,0.1,0.2,0.2,0.5,0.2,0.3,0.8,0.7,0.7,0.7,0.5,0.5,0.4,0.6,–,–,0.1,0.3,Binding of serum SARS-green to linear peptide (PEPSCAN-ELISA) [1]: 0.5; Binding of serum SARS-yellow to linear peptide (PEPSCAN-ELISA) [1]: 0.7; Binding of Control Serum Blood-Bank to Looped peptides [2]: 0.9; Binding of Control serum Blood-bank to linear peptides [2]: 0.8; Binding of Control serum LUMC to linear peptides [2]: 0.8; Binding of Control serum LUMC to looped peptides [2]: 0.9; Recognition of the peptide by the rabbit serum [3]: recognized
AQPLPQRQKKQPTVT,–,0.2,–,0.1,–,0.2,–,0.1,–,0.3,–,0.2,–,0.2,0.3,0.2,0.2,0.2,0.1,0.1,Binding of serum 1a to linear peptides of protein N of SARS-CoV Urbani [1]: 0.3; Binding of serum 1b to linear peptides of protein N of SARS-CoV Urbani [1]: 0.2; Binding of serum 2 to linear peptides of protein N of SARS-CoV Urbani [1]: 0.4; Binding of serum 6 to linear peptides of protein N of SARS-CoV Urbani [1]: 0.4; Binding of serum 37 to linear peptides of protein N of SARS-CoV Urbani [1]: 0.7; Binding of serum 62 to linear peptides of protein N of SARS-CoV Urbani [1]: 0.8; Binding of serum London to linear peptides of protein N of SARS-CoV Urbani [1]: 1.6; Binding of serum SARS-green to linear peptides of protein N of SARS-CoV Urbani [1]: 0.3; Binding of serum SARS-yellow to linear peptides of protein N of SARS-CoV Urbani [1]: 1.4; Control Serum Blood-Bank Looped peptides [2]: 0.4; Control serum Blood-bank linear peptides [2]: 0.6; Control serum LUMC linear peptides [2]: 0.7; Control serum LUMC looped peptides [2]: 0.3
DYKHWPQIAQFAPSA,–,0.4,–,0.3,–,0.4,–,0.2,–,0.6,–,0.6,–,0.5,0.2,0.7,0.1,0.5,0.1,0.2,Binding of serum 1a to linear peptides of protein N of SARS-CoV Urbani [1]: 0.3; Binding of serum 1b to linear peptides of protein N of SARS-CoV Urbani [1]: 0.2; Binding of serum 2 to linear peptides of protein N of SARS-CoV Urbani [1]: 0.2; Binding of serum 6 to linear peptides of protein N of SARS-CoV Urbani [1]: 0.2; Binding of serum 37 to linear peptides of protein N of SARS-CoV Urbani [1]: 0.9; Binding of serum 62 to linear peptides of protein N of SARS-CoV Urbani [1]: 0.9; Binding of serum London to linear peptides of protein N of SARS-CoV Urbani [1]: 0.7; Binding of serum SARS-green to linear peptides of protein N of SARS-CoV Urbani [1]: 0.4; Binding of serum SARS-yellow to linear peptides of protein N of SARS-CoV Urbani [1]: 0.8; Control Serum Blood-Bank Looped peptides [2]: 0.6; Control serum Blood-bank linear peptides [2]: 0.9; Control serum LUMC linear peptides [2]: 0.8; Control serum LUMC looped peptides [2]: 0.7
